Patent US20210269434A1, “TRICYCLIC COMPOUNDS AS INHIBITORS OF KRAS” (Incyte Corporation, priority 2020, published 2021)

Experiments:
KRAS G12C = KRAS G12C (Homo sapiens, UniProt P01116, G12C); experiment: GDP-GTP exchange assay (KRAS_G12C exchange); assay type: biochemical; settings: bodipy-GDP loaded KRAS G12C 2.5 nM, SOS1 150 nM, GppNHp; 2 hours pre-incubation, 2 hours reaction; read-out: G12C_exchange
Summary of the method: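 Fluorescence exchange of bodipy-GDP for GppNHp, SOS1-driven, read at 485/520 nm; IC50 from four-parameter variable-slope fit. Both mutants used 2.5 nM final labelled protein and a 2 h compound pre-incubation. G12C reaction had 500 uM GppNHp and 150 nM SOS1 for 2 h; G12D ran 4 h.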

[1] = tested on: MIA PaCa-2 (KRAS G12C) cells; experiment: Cellular pERK HTRF assay (KRAS_G12C pERK); assay type: cell-based, human; settings: Homo sapiens, MIA PaCa-2, 4 hours incubation, read-out: G12C_pERK
Summary of the method: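 Phospho-ERK1/2 HTRF readout (665 and 620 nm) in lysed MIA PaCa-2 cells, antibodies incubated overnight at room temperature. Cells seeded the day before and treated with G12C compounds for 4 h at 37 °C; IC50 fitted to percent inhibition against log inhibitor concentration.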

KRAS G12C, sequence (P01116 1-188 isoform P01116-2 G12C): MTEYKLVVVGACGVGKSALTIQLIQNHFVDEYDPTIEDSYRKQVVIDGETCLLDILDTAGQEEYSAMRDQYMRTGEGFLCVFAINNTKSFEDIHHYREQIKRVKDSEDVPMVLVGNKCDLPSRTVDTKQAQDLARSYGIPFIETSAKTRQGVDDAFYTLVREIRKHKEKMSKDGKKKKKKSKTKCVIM

Row | SMILES | IC50 (KRAS G12C) [nM] | IC50 [1] [nM]
1 | C=CC(=O)N1CC[C@H](n2cnc3c(N4CC(N(C)C)C4)nc4c(F)c(-c5cncc(Cl)c5C)c(Cl)cc4c32)C[C@H]1CC#N [Example 89, 2-((2S,4S)-1-acryloyl-4-(8-chloro-7-(5-chloro-4-methylpyridin-3-yl)-4-(3-(dimethylamino)azetidin-1-yl)-6-fluoro-1H-imidazo[4,5-c]quinolin-1-yl)piperidin-2-yl)acetonitrile] | ≤ 100 | ≤ 100
2 | Cc1cccc(-c2c(C)cc3c(nc(OC[C@@H]4CCCN4C)c4nnn([C@H]5CCN(C(=O)/C=C/CF)[C@H](CC#N)C5)c43)c2F)c1Cl [Example 253, 2-((2S,4S)-4-(7-(2-chloro-3-methylphenyl)-6-fluoro-8-methyl-4-(((S)-1-methylpyrrolidin-2-yl)methoxy)-1H-[1,2,3]triazolo[4,5-c]quinolin-1-yl)-1-((E)-4-fluorobut-2-enoyl)piperidin-2-yl)acetonitrile] | ≤ 100 | ≤ 100
3 | C=CC(=O)N1CC[C@H](n2nnc3c(N4CC(N(C)C)C4)nc4c(Cl)c(-c5cc(F)cc6cccnc56)c(Cl)cc4c32)C[C@H]1CC#N (single isomer, unassigned) [Example 284a] | ≤ 100 | ≤ 100
4 | C=CC(=O)N1CC[C@H](n2nnc3c(N4CC(N(C)C)C4)nc4c(F)c(-c5cccc(Cl)c5C)c(Cl)cc4c32)C[C@H]1CC#N [Example 112, 2-((2S,4S)-1-acryloyl-4-(8-chloro-7-(3-chloro-2-methylphenyl)-4-(3-(dimethylamino)azetidin-1-yl)-6-fluoro-1H-[1,2,3]triazolo[4,5-c]quinolin-1-yl)piperidin-2-yl)acetonitrile] | ≤ 100 | ≤ 100
5 | C=CC(=O)N1CC[C@H](n2cnc3c(N4CC(N(C)C)C4)nc4c(F)c(-c5cccc6cccnc56)c(Cl)cc4c32)C[C@H]1CC#N (single isomer, unassigned) [Example 72a] | ≤ 100 | ≤ 100
6 | COC/C=C/C(=O)N1CC[C@H](n2cnc3c(N4CC(C)(N(C)C)C4)nc4c(F)c(-c5c(C)c(Cl)cc6[nH]ncc56)c(Cl)cc4c32)C[C@H]1CC#N (single isomer, unassigned) [Example 80a] | ≤ 100 | ≤ 100
7 | C=CC(=O)N1CC[C@H](n2cnc3c(N4CC(N(C)C)C4)nc4c(F)c(-c5ccc(F)c6ccccc56)c(Cl)cc4c32)C[C@H]1CC#N [Example 67, 2-((2S,4S)-1-acryloyl-4-(8-chloro-4-(3-(dimethylamino)azetidin-1-yl)-6-fluoro-7-(4-fluoronaphthalen-1-yl)-1H-imidazo[4,5-c]quinolin-1-yl)piperidin-2-yl)acetonitrile] | ≤ 100 | ≤ 100
8 | CC#CC(=O)N1CC[C@H](n2nnc3c(OC[C@@H]4CCCN4C)nc4c(F)c(-c5cccc(Cl)c5C)c(Cl)cc4c32)C[C@H]1CC#N (single isomer, unassigned) [Example 87a] | ≤ 100 | ≤ 100
9 | C=CC(=O)N1CC[C@H](n2nnc3c(OC[C@@H]4CCCN4C)nc4c(F)c(-c5c(C)c(Cl)cc6[nH]ncc56)c(Cl)cc4c32)C[C@H]1CC#N [Example 190a, 2-((2S,4S)-1-acryloyl-4-(8-chloro-7-(6-chloro-5-methyl-1H-indazol-4-yl)-6-fluoro-4-(((S)-1-methylpyrrolidin-2-yl)methoxy)-1H-[1,2,3]triazolo[4,5-c]quinolin-1-yl)piperidin-2-yl)acetonitrile] | ≤ 100 | ≤ 100

Second part, the molecule after the results:

Row | IC50 (KRAS G12C) [nM] | IC50 [1] [nM] | SMILES
10 | ≤ 100 | ≤ 100 | C=CC(=O)N1CC[C@H](n2nnc3c(N4CC(C)(N(C)C)C4)nc4c(F)c(-c5cccc(C)c5C)c(C)cc4c32)C[C@H]1CC#N [Example 208, 2-((2S,4S)-1-acryloyl-4-(4-(3-(dimethylamino)-3-methylazetidin-1-yl)-7-(2,3-dimethylphenyl)-6-fluoro-8-methyl-1H-[1,2,3]triazolo[4,5-c]quinolin-1-yl)piperidin-2-yl)acetonitrile]
11 | ≤ 100 | ≤ 100 | Cc1cccc(-c2c(Cl)cc3c(nc(N4CC(N(C)C)C4)c4ncn([C@H]5CCN(C(=O)/C=C/CF)[C@H](CC#N)C5)c43)c2F)c1C [Example 149, 2-((2S,4S)-4-(8-chloro-4-(3-(dimethylamino)azetidin-1-yl)-7-(2,3-dimethylphenyl)-6-fluoro-1H-imidazo[4,5-c]quinolin-1-yl)-1-((E)-4-fluorobut-2-enoyl)piperidin-2-yl)acetonitrile]
12 | ≤ 100 | ≤ 100 | C=CC(=O)N1CC[C@H](n2nnc3c(N4CC(N(C)C)C4)nc4c(Cl)c(-c5cccc(C)c5Cl)c(Cl)cc4c32)C[C@H]1CC#N [Example 282, 2-((2S,4S)-1-acryloyl-4-(6,8-dichloro-7-(2-chloro-3-methylphenyl)-4-(3-(dimethylamino)azetidin-1-yl)-1H-[1,2,3]triazolo[4,5-c]quinolin-1-yl)piperidin-2-yl)acetonitrile]
13 | ≤ 100 | ≤ 100 | C=CC(=O)N1CCC(n2cnc3c(N4CC(C)(N(C)C)C4)nc4c(F)c(-c5cccc6cccc(Cl)c56)c(C)cc4c32)C[C@H]1CC#N (single isomer, unassigned) [Example 221a]
14 | ≤ 100 | ≤ 100 | C=CC(=O)N1CC[C@H](n2nnc3c(N4CC(N(C)C)C4)nc4c(F)c(-c5cccc(C)c5)c(Cl)cc4c32)C[C@H]1CC#N [Example 114, 2-((2S,4S)-1-acryloyl-4-(8-chloro-4-(3-(dimethylamino)azetidin-1-yl)-6-fluoro-7-(m-tolyl)-1H-[1,2,3]triazolo[4,5-c]quinolin-1-yl)piperidin-2-yl)acetonitrile]
15 | ≤ 100 | ≤ 100 | CC#CC(=O)N1CC[C@H](n2nnc3cnc4c(F)c(-c5c(C)c(Cl)cc6[nH]ncc56)c(Cl)cc4c32)C[C@H]1CC#N [Example 188, 2-((2S,4S)-1-(but-2-ynoyl)-4-(8-chloro-7-(6-chloro-5-methyl-1H-indazol-4-yl)-6-fluoro-1H-[1,2,3]triazolo[4,5-c]quinolin-1-yl)piperidin-2-yl)acetonitrile]
16 | ≤ 100 | ≤ 100 | C=CC(=O)N1CC[C@H](n2nnc3c(OC[C@@H]4CCCN4C)nc4c(F)c(-c5ccc(F)c(C)c5)c(Cl)cc4c32)C[C@H]1CC#N [Example 187, 2-((2S,4S)-1-acryloyl-4-(8-chloro-6-fluoro-7-(4-fluoro-3-methylphenyl)-4-(((S)-1-methylpyrrolidin-2-yl)methoxy)-1H-[1,2,3]triazolo[4,5-c]quinolin-1-yl)piperidin-2-yl)acetonitrile]
17 | ≤ 100 | ≤ 100 | Cc1cccc(-c2c(C)cc3c(nc(N4CC(C)(N(C)C)C4)c4nnn([C@H]5CCN(C(=O)/C=C/CN(C)C)[C@H](CC#N)C5)c43)c2F)c1Cl [Example 257, 2-((2S,4S)-4-(7-(2-chloro-3-methylphenyl)-4-(3-(dimethylamino)-3-methylazetidin-1-yl)-6-fluoro-8-methyl-1H-[1,2,3]triazolo[4,5-c]quinolin-1-yl)-1-((E)-4-(dimethylamino)but-2-enoyl)piperidin-2-yl)acetonitrile]
